According to ChEMBL document CHEMBL4184335, “Synthesis, Structure-Activity Relationships, and Preclinical Evaluation of Heteroaromatic Amides and 1,3,4-Oxadiazole Derivatives as 5-HT4 Receptor Partial Agonists” (J Med Chem, 2018):

Legend:
in vitro [1] = conditions: rat, liver microsomes
in vivo [2] = conditions: Wistar, rat, po, 10 mg/kg
in vivo [3] = conditions: Wistar, rat, iv, 1 mg/kg
in vitro [4] = conditions: human, liver microsomes
in vivo [5] = conditions: Wistar, rat
in vivo [6] = conditions: Wistar, rat, po, 3 mg/kg
in vivo [7] = conditions: Wistar, rat, po, 3 mg/kg; remark: listed apart in the source

Row | metabolised at 0.5 h (in vitro [1]) [%] | Kp at 1 h (in vivo [2]; brain and plasma) | clearance (in vivo [3]) [mL/min/kg] | metabolised at 0.5 h (in vitro [4]) [%] | AUC (in vivo [5]) [ng·h/mL] | bioavailability (in vivo [6]) [%] | Cmax (in vivo [7]) [ng/mL] | Compound | Kp at 1 h (in vivo [2]; brain)
1 | 87.3 | 0.7 | 29 | 71.9 | 94 | 5.4 | 85 | OC1(CN2CCC(COc3noc4cccc(O[C@@H]5CCOC5)c34)CC2)CCOCC1 [PF-04995274] | –
2 | 36.9 | – | 113 | 22.1 | 828 | 84 | 285 | COCCCN1CCC(NC(=O)c2cc(Cl)c(N)c3c2OCC3)CC1 [PRUCALOPRIDE] | –
3 | 36.9 | 1.5 | – | 22.1 | – | 2 | – | CC(C)n1c(=O)c(C(=O)NCCCN2CCCCC2)c(O)c2ccsc21 [PRX-03140] | –

Row | Compound | metabolised at 0.5 h (in vitro [1]) [%] | Kp at 1 h (in vivo [2]; brain and plasma) | clearance (in vivo [3]) [mL/min/kg] | metabolised at 0.5 h (in vitro [4]) [%] | AUC (in vivo [5]) [ng·h/mL] | bioavailability (in vivo [6]) [%] | Cmax (in vivo [7]) [ng/mL] | Kp at 1 h (in vivo [2]; brain)
4 | CC(C)c1nc(C(=O)NCC2C3CN(C4CCOCC4)CC23)n2ccccc12 (stereo unspecified) | 0 | – | 62 | 24.4 | 121 | 15 | 60 | 4
5 | COCCCN1CCC(CNC(=O)c2cccn3nc(C(C)C)nc23)CC1 | 23.4 | – | – | 2.7 | – | – | – | –
